# Data as given in ChEMBL document CHEMBL3885881, “DrugMatrix”.
# Species: Rattus norvegicus
# Experiment: DrugMatrix - Regimen: Daily Repeat
# Format: toxicity, organism-based, Sprague-Dawley
# Design: regimen Daily Repeat, gender Male, age 6-8 weeks
# Conditions: in vivo, po, route oral GAVAGE, […]; for ABSOLUTE BASOPHIL / ABSOLUTE EOSINOPHIL / ABSOLUTE LYMPHOCYTE / ABSOLUTE MONOCYTE / ABSOLUTE SEGMENTED NEUTROPHIL / BASOPHIL / EOSINOPHIL / ERYTHROCYTE COUNT / HEMATOCRIT / HEMOGLOBIN / LEUKOCYTE COUNT / LYMPHOCYTE / MEAN CORPUSCULAR HEMOGLOBIN / MEAN CORPUSCULAR HEMOGLOBIN CONCENTRATION / MEAN CORPUSCULAR VOLUME / MONOCYTE / NEUTROPHIL / NUCLEATED RED BLOOD CELLS / PLATELET COUNT: tissue Blood; for ALANINE AMINOTRANSFERASE / ALBUMIN / ALKALINE PHOSPHATASE / ASPARTATE AMINOTRANSFERASE / BLOOD UREA NITROGEN / CARBON DIOXIDE / CHLORIDE / CHOLESTEROL / CREATINE PHOSPHOKINASE / CREATININE / GLUCOSE / LACTATE DEHYDROGENASE / LIPASE / PHOSPHORUS / POTASSIUM / SODIUM / TOTAL BILIRUBIN / TOTAL PROTEIN / URIC ACID: tissue Plasma
# [1] = 12 mg/kg, 120 h, dose level Low, time 5 day
# [2] = 380 mg/kg, 72 h, dose level High, time 3 day
# [3] = 380 mg/kg, 120 h, dose level High, time 5 day
compound,measurement,setting,value
COc1ncnc(NS(=O)(=O)c2ccc(N)cc2)c1OC [SULFADOXINE],ABSOLUTE BASOPHIL,[1],0 CELLS/uL
same,ABSOLUTE EOSINOPHIL,[1],0 CELLS/uL
same,ABSOLUTE LYMPHOCYTE,[1],10205.33 CELLS/uL
same,ABSOLUTE MONOCYTE,[1],178 CELLS/uL
same,ABSOLUTE SEGMENTED NEUTROPHIL,[1],483.33 CELLS/uL
same,BASOPHIL,[1],0%
same,EOSINOPHIL,[1],0%
same,ERYTHROCYTE COUNT,[1],5.46 x10E6/uL
same,HEMATOCRIT,[1],34.5%
same,HEMOGLOBIN,[1],13.53 G/DL
same,LEUKOCYTE COUNT,[1],10.87 x10E3/uL
same,LYMPHOCYTE,[1],94%
same,MEAN CORPUSCULAR HEMOGLOBIN,[1],24.8 pg
same,MEAN CORPUSCULAR HEMOGLOBIN CONCENTRATION,[1],39.27 G/DL
same,MEAN CORPUSCULAR VOLUME,[1],63.17 fL
same,MONOCYTE,[1],1.67%
same,NEUTROPHIL,[1],4.33%
same,NUCLEATED RED BLOOD CELLS,[1],0 /100WBC
same,PLATELET COUNT,[1],1312.33 x10E3/uL
same,ALANINE AMINOTRANSFERASE,[1],52 u/L
same,ALBUMIN,[1],4.1 G/DL
same,ALKALINE PHOSPHATASE,[1],476 u/L
same,ASPARTATE AMINOTRANSFERASE,[1],74.33 u/L
same,BLOOD UREA NITROGEN,[1],11.67 mg/dL
same,CARBON DIOXIDE,[1],31.67 mmol/L
same,CHLORIDE,[1],101.67 MEQ/L
same,CHOLESTEROL,[1],65.33 mg/dL
same,CREATINE PHOSPHOKINASE,[1],233 u/L
same,CREATININE,[1],0.14 mg/dL
same,GLUCOSE,[1],140.33 mg/dL
same,LACTATE DEHYDROGENASE,[1],125.67 u/L
same,LIPASE,[1],11.33 u/L
same,PHOSPHORUS,[1],10.5 mg/dL
same,POTASSIUM,[1],5.98 MEQ/L
same,SODIUM,[1],148.87 MEQ/L
same,TOTAL BILIRUBIN,[1],0.27 mg/dL
same,TOTAL PROTEIN,[1],5.87 G/DL
same,URIC ACID,[1],0.53 mg/dL
same,ABSOLUTE BASOPHIL,[2],0 CELLS/uL
same,ABSOLUTE EOSINOPHIL,[2],29.33 CELLS/uL
same,ABSOLUTE LYMPHOCYTE,[2],8090 CELLS/uL
same,ABSOLUTE MONOCYTE,[2],197 CELLS/uL
same,ABSOLUTE SEGMENTED NEUTROPHIL,[2],650.33 CELLS/uL
same,BASOPHIL,[2],0%
same,EOSINOPHIL,[2],0.33%
same,ERYTHROCYTE COUNT,[2],5.01 x10E6/uL
same,HEMATOCRIT,[2],31.2%
same,HEMOGLOBIN,[2],12.27 G/DL
same,LEUKOCYTE COUNT,[2],8.97 x10E3/uL
same,LYMPHOCYTE,[2],90%
same,MEAN CORPUSCULAR HEMOGLOBIN,[2],24.6 pg
same,MEAN CORPUSCULAR HEMOGLOBIN CONCENTRATION,[2],39.4 G/DL
same,MEAN CORPUSCULAR VOLUME,[2],62.43 fL
same,MONOCYTE,[2],2.33%
same,NEUTROPHIL,[2],7.33%
same,NUCLEATED RED BLOOD CELLS,[2],0 /100WBC
same,PLATELET COUNT,[2],1128.67 x10E3/uL
same,ALANINE AMINOTRANSFERASE,[2],92.33 u/L
same,ALBUMIN,[2],3.93 G/DL
same,ALKALINE PHOSPHATASE,[2],373.33 u/L
same,ASPARTATE AMINOTRANSFERASE,[2],93.67 u/L
same,BLOOD UREA NITROGEN,[2],13 mg/dL
same,CARBON DIOXIDE,[2],32.33 mmol/L
same,CHLORIDE,[2],99.67 MEQ/L
same,CHOLESTEROL,[2],78 mg/dL
same,CREATINE PHOSPHOKINASE,[2],280 u/L
same,CREATININE,[2],0.14 mg/dL
same,GLUCOSE,[2],143 mg/dL
same,LACTATE DEHYDROGENASE,[2],116.67 u/L
same,LIPASE,[2],11.67 u/L
same,PHOSPHORUS,[2],9.13 mg/dL
same,POTASSIUM,[2],5.99 MEQ/L
same,SODIUM,[2],144.13 MEQ/L
same,TOTAL BILIRUBIN,[2],0.2 mg/dL
same,TOTAL PROTEIN,[2],5.5 G/DL
same,URIC ACID,[2],0.37 mg/dL
same,ABSOLUTE BASOPHIL,[3],0 CELLS/uL
same,ABSOLUTE EOSINOPHIL,[3],0 CELLS/uL
same,ABSOLUTE LYMPHOCYTE,[3],5345.67 CELLS/uL
same,ABSOLUTE MONOCYTE,[3],97.67 CELLS/uL
same,ABSOLUTE SEGMENTED NEUTROPHIL,[3],423.33 CELLS/uL
same,BASOPHIL,[3],0%
same,EOSINOPHIL,[3],0%
same,ERYTHROCYTE COUNT,[3],5.09 x10E6/uL
same,HEMATOCRIT,[3],32.47%
same,HEMOGLOBIN,[3],12.83 G/DL
same,LEUKOCYTE COUNT,[3],5.87 x10E3/uL
same,LYMPHOCYTE,[3],91.33%
same,MEAN CORPUSCULAR HEMOGLOBIN,[3],25.23 pg
same,MEAN CORPUSCULAR HEMOGLOBIN CONCENTRATION,[3],39.53 G/DL
same,MEAN CORPUSCULAR VOLUME,[3],63.77 fL
same,MONOCYTE,[3],1.67%
same,NEUTROPHIL,[3],7%
same,NUCLEATED RED BLOOD CELLS,[3],0 /100WBC
same,PLATELET COUNT,[3],1282.67 x10E3/uL
same,ALANINE AMINOTRANSFERASE,[3],65.67 u/L
same,ALBUMIN,[3],3.97 G/DL
same,ALKALINE PHOSPHATASE,[3],341.33 u/L
same,ASPARTATE AMINOTRANSFERASE,[3],76 u/L
same,BLOOD UREA NITROGEN,[3],15 mg/dL
same,CARBON DIOXIDE,[3],31.33 mmol/L
same,CHLORIDE,[3],99.33 MEQ/L
same,CHOLESTEROL,[3],75 mg/dL
same,CREATINE PHOSPHOKINASE,[3],205.67 u/L
same,CREATININE,[3],0.2 mg/dL
same,GLUCOSE,[3],145 mg/dL
same,LACTATE DEHYDROGENASE,[3],115.67 u/L
same,LIPASE,[3],10.33 u/L
same,PHOSPHORUS,[3],10.13 mg/dL
same,POTASSIUM,[3],5.99 MEQ/L
same,SODIUM,[3],144.77 MEQ/L
same,TOTAL BILIRUBIN,[3],0.17 mg/dL
same,TOTAL PROTEIN,[3],5.97 G/DL
same,URIC ACID,[3],0.6 mg/dL
